Laboratory results published in patent publication US8957085B2, “Carboxamide bioisosteres of opiates” (Rensselaer Polytechnic Institute, priority 2010, dated 2015).

Key:
human κ opioid receptor = human κ opioid receptor (Homo sapiens, UniProt P41145); assay: biochemical
human δ opioid receptor = human δ opioid receptor (Homo sapiens, UniProt P41143); assay: Opioid receptor binding assay, [3H]naltrindole (δ); details: Ki [3H]Naltrindole (δ), membranes of CHO cells expressing human δ opioid receptor; 0.2 nM [3H]naltrindole; mean ± S.E.
human μ opioid receptor = human μ opioid receptor (Homo sapiens, UniProt P35372); assay: Opioid receptor binding assay, [3H]DAMGO (μ)
[1] = 1 mg/kg ip in mice; cited from earlier work

Chain of human μ opioid receptor (P35372 whole entry): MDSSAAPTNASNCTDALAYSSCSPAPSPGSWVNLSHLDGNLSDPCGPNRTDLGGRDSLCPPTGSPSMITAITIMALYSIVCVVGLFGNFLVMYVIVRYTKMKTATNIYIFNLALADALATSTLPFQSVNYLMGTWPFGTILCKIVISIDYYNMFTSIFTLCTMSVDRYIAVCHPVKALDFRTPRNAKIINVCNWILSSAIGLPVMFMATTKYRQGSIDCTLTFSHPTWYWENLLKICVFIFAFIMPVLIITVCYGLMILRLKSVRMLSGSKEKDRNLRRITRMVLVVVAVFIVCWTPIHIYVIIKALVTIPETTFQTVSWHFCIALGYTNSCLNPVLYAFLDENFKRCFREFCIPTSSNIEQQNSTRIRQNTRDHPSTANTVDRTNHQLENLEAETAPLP
Chain of human δ opioid receptor (P41143 whole entry): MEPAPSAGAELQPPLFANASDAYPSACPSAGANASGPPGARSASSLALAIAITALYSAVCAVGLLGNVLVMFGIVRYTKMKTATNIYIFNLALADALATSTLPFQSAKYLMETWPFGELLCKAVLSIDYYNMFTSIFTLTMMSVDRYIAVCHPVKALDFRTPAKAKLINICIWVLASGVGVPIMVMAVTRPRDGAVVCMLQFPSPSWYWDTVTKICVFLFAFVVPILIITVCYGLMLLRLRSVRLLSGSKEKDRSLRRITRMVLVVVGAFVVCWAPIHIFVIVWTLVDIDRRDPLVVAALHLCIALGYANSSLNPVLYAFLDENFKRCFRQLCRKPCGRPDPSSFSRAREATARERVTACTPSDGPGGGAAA
Chain of human κ opioid receptor (P41145 whole entry): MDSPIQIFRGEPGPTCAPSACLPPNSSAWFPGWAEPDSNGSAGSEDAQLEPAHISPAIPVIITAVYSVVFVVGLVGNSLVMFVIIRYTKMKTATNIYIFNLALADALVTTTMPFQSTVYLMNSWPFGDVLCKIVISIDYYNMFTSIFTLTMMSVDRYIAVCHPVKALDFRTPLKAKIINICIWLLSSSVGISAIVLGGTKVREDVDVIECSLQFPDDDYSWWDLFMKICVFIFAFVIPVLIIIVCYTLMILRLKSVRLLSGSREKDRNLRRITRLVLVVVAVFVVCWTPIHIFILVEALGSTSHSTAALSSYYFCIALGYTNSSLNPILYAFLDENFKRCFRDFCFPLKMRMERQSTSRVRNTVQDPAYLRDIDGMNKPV

Structure (SMILES) | Ki (human κ opioid receptor) [nM] | Ki (human δ opioid receptor) [nM] | Ki (human μ opioid receptor) [nM] | duration of action (antinociception) [1] [h]
CC1C2Cc3ccc(C(=O)NCCc4ccc(-c5ccc(O)cc5)cc4)cc3C1(C)CCN2CC1CC1 (racemic) [Compound 1] | 0.49 ± 0.011 | 0.81 ± 0.12 | – | –
COc1ccc(-c2ccc(CCNC(=O)c3ccc4c(c3)C3(C)CCN(CC5CC5)C(C4)C3C)cc2)cc1C (racemic) [Compound 2] | – | 1.5 ± 0.14 | – | –
COc1ccc(-c2ccc(CCNC(=O)c3ccc4c(c3)C3(C)CCN(CC5CC5)C(C4)C3C)cc2)c(C)c1 (racemic) [Compound 3] | 1.3 ± 0.11 | 1.1 ± 0.18 | 0.23 ± 0.0056 | –
CCOc1ccc(-c2ccc(CCNC(=O)c3ccc4c(c3)C3(C)CCN(CC5CC5)C(C4)C3C)cc2)cc1 (racemic) [Compound 4] | 3.3 ± 0.32 | 3.4 ± 0.039 | – | –
CC(C)Oc1ccc(-c2ccc(CCNC(=O)c3ccc4c(c3)C3(C)CCN(CC5CC5)C(C4)C3C)cc2)cc1 (racemic) [Compound 5] | – | 1.9 ± 0.21 | 0.23 ± 0.041 | –
CC(C)Oc1cccc(-c2ccc(CCNC(=O)c3ccc4c(c3)C3(C)CCN(CC5CC5)C(C4)C3C)cc2)c1 (racemic) [Compound 6] | 2.4 ± 0.25 | 3.9 ± 1.4 | 0.43 ± 0.041 | –
CC(C)Oc1ccccc1-c1ccc(CCNC(=O)c2ccc3c(c2)C2(C)CCN(CC4CC4)C(C3)C2C)cc1 (racemic) [Compound 7] | 1.8 ± 0.17 | 0.55 ± 0.025 | – | –
CC1C2Cc3ccc(C(=O)NCCc4ccc(-c5ccc6c(c5)OCO6)cc4)cc3C1(C)CCN2CC1CC1 (racemic) [Compound 8] | 0.73 ± 0.049 | 1 ± 0.12 | – | –
CC1C2Cc3ccc(C(=O)NCCc4ccc(-c5ccc(C#N)cc5)cc4)cc3C1(C)CCN2CC1CC1 (racemic) [Compound 9] | 1 ± 0.095 | 3 ± 0.11 | 0.017 ± 0.00075 | –
CC1C2Cc3ccc(C(=O)NCCc4ccc(-c5ccc(C=O)cc5)cc4)cc3C1(C)CCN2CC1CC1 (racemic) [Compound 10] | 1.8 ± 0.038 | 2.5 ± 0.12 | 0.002 ± 0.00029 | –
C[C@H]1C2Cc3ccc(C(=O)NCCc4ccc(-c5ccc(C(N)=O)cc5)cc4)cc3[C@@]1(C)CCN2CC1CC1 (racemic) [Compound 34] | 0.91 ± 0.066 | 1 ± 0.018 | 0.0052 ± 0.00055 | –
C[C@H]1C2Cc3ccc(C(=O)NCCc4ccc(-c5ccc(C(=O)O)cc5)cc4)cc3[C@@]1(C)CCN2CC1CC1 (racemic) [Compound 35] | 55 ± 4.1 | 68 ± 9 | 2.3 ± 0.16 | –
COC(=O)c1ccc(-c2ccc(CCNC(=O)c3ccc4c(c3)[C@@]3(C)CCN(CC5CC5)C(C4)[C@@H]3C)cc2)cc1 (racemic) [Compound 36] | 1.1 ± 0.13 | 1.5 ± 0.062 | 0.0091 ± 0.00071 | –
CC1C2Cc3ccc(C(=O)NCCc4ccc(-c5ccc(O)cc5)cc4)cc3C1(C)CCN2CC1CC1 (single isomer, unassigned) [Compound 1A] | 0.36 ± 0.018 | 0.78 ± 0.05 | – | –
C[C@H]1C2Cc3ccc(C(N)=O)cc3[C@@]1(C)CCN2CC1CC1 [Compound 8-CAC, 8-carboxamidocyclazocine] | – | – | – | 15
C[C@H]1[C@H]2Cc3ccc(O)cc3[C@]1(C)CCN2CC1CC1 [cyclazocine] | – | – | – | 2
